What was measured:
Settings in all cases: 72 h
Caco-2 [1] = experiment: cell viability relative to DMSO; higher = less toxic
Calu-3 [2] = experiment: as above
HepG2 [3] = experiment: as above
U2OS [4] = experiment: as above
Vero E6 [5] = experiment: as above
Caco-2 [6] = experiment: relative viability EC50 (midpoint between 100% and the lowest measured viability); higher = less toxic
Calu-3 [7] = experiment: as above
HepG2 [8] = experiment: as above
U2OS [9] = experiment: as above
Vero E6 [10] = experiment: as above
Caco-2 [11] = experiment: drug sensitivity score (DSS) for viability; higher = more toxic; extreme values may be limits of the assay
Calu-3 [12] = experiment: as above
HepG2 [13] = experiment: as above
U2OS [14] = experiment: as above
Vero E6 [15] = experiment: as above

SMILES	cell viability (Caco-2 [1]; 1 nM) [%]	cell viability (Caco-2 [1]; 10 nM) [%]	cell viability (Caco-2 [1]; 100 nM) [%]	cell viability (Caco-2 [1]; 1000 nM) [%]	cell viability (Caco-2 [1]; 10000 nM) [%]	cell viability (Calu-3 [2]; 1 nM) [%]	cell viability (Calu-3 [2]; 10 nM) [%]	cell viability (Calu-3 [2]; 100 nM) [%]	cell viability (Calu-3 [2]; 1000 nM) [%]	cell viability (Calu-3 [2]; 10000 nM) [%]	cell viability (HepG2 [3]; 1 nM) [%]	cell viability (HepG2 [3]; 10 nM) [%]	cell viability (HepG2 [3]; 100 nM) [%]	cell viability (HepG2 [3]; 1000 nM) [%]	cell viability (HepG2 [3]; 10000 nM) [%]	cell viability (U2OS [4]; 1 nM) [%]	cell viability (U2OS [4]; 10 nM) [%]	cell viability (U2OS [4]; 100 nM) [%]	cell viability (U2OS [4]; 1000 nM) [%]	cell viability (U2OS [4]; 10000 nM) [%]	cell viability (Vero E6 [5]; 1 nM) [%]	cell viability (Vero E6 [5]; 10 nM) [%]	cell viability (Vero E6 [5]; 100 nM) [%]	cell viability (Vero E6 [5]; 1000 nM) [%]	cell viability (Vero E6 [5]; 10000 nM) [%]	relative viability EC50 (Caco-2 [6]) [µM]	relative viability EC50 (Calu-3 [7]) [µM]	relative viability EC50 (HepG2 [8]) [µM]	relative viability EC50 (U2OS [9]) [µM]	relative viability EC50 (Vero E6 [10]) [µM]	drug sensitivity score (Caco-2 [11])	drug sensitivity score (Calu-3 [12])	drug sensitivity score (HepG2 [13])	drug sensitivity score (U2OS [14])	drug sensitivity score (Vero E6 [15])
COc1cc2c(Nc3ccc(Cl)c(Cl)c3F)ncnc2cc1OC[C@@H]1C[C@@H]2CN(C)C[C@@H]2C1 [XL647]	92.1	92.6	95	72.1	14.9	98.8	93.2	82.4	31	0.7	102	89.7	99.7	92.9	6.7	95.9	95.9	93.7	84.2	-0.3	96.8	100	85.1	39.2	-0.4	1.39	0.431	2.55	1.94	0.612	8.4	15.3	6.3	8.2	13.6
Cc1ccc(Oc2ccccc2-c2csc(N=C3NCCCN3)n2)c(C)c1 [abafungin]	104	105	100	87.5	78.3	90.4	99	104	99.3	112	105	104	104	87.8	75.8	91.6	95.2	93.6	96.7	91.2	106	99.8	105	99.4	97.7	> 10	> 10	> 10	> 10	> 10	2	0	2.3	0	0
CC(=O)Nc1c(I)cc(I)c(C(=O)O)c1I [acetriazoic-acid]	91.2	92	96.3	97.8	102	98.6	95.3	95.1	99.4	97.1	96.6	92.1	89.9	95.8	107	94.2	92.4	98.7	97.2	98.2	93.2	99	93.8	98.4	102	> 10	> 10	> 10	> 10	> 10	0	0	0	0	0
COc1ccc(-c2ccc3cc(C(=O)O)ccc3c2)cc1C12CC3CC(CC(C3)C1)C2 [adapalene]	95.3	99.6	97.6	99.4	93.3	98.6	101	101	101	86.2	102	96.9	109	104	112	94.5	98.2	94.6	99.4	98.4	98.1	94.6	95.4	93.3	115	> 10	> 10	> 10	> 10	> 10	0	0.1	0	0	0
C[C@]12CCC(=O)C=C1CC[C@@H]1[C@@H]2C(=O)C[C@]2(C)C(=O)CC[C@@H]12 [adrenosterone]	107	96	98	95	97.5	106	92.5	100	98.1	96.4	98.6	98.8	94.5	97.7	97.5	103	95	98.2	97.4	99.1	95.3	100	99.3	97.5	97.1	> 10	> 10	> 10	> 10	> 10	0	0	0	0	0
C=CC[C@]1(O)CC[C@H]2[C@@H]3CCC4=CCCC[C@@H]4[C@H]3CC[C@@]21C [allylestrenol]	107	102	112	102	88.8	98	108	116	104	106	105	104	108	105	98.3	94.6	98.1	94.8	99.4	99.5	102	91.5	106	103	97.7	> 10	> 10	> 10	> 10	> 10	0	0	0	0	0
CN(C)CCC=C1c2ccccc2CCc2ccccc21 [amitriptyline]	110	77.9	104	96.5	90.8	99.6	109	110	104	90.3	107	102	99.1	93	83.5	102	98.5	100	101	92.3	102	94	86.5	113	86.3	> 10	> 10	> 10	> 10	> 10	0	0	0.8	0	0
CC1(C)S[C@@H]2[C@H](NC(=O)[C@H](N)c3ccc(O)cc3)C(=O)N2[C@H]1C(=O)O [amoxicillin]	85	78.5	85.4	97	97.7	109	110	110	106	96.5	99.3	106	97.3	98.2	96.4	102	103	96.2	102	106	101	97.8	98.2	88.2	102	> 10	> 10	> 10	> 10	> 10	0	0	0	0	0
CCOC(=O)c1c(CSc2ccccc2)n(C)c2cc(Br)c(O)c(CN(C)C)c12 [arbidol]	94.9	88.1	94.4	96.7	88.2	94.5	96.7	96	96.8	81.6	96	104	108	104	97.2	98.3	92.8	96.8	92.4	93.8	92.9	96.6	92	104	101	> 10	> 10	> 10	> 10	> 10	0	0.9	0	0	0
C[C@@H]1CC[C@H]2[C@@H](C)C(=O)O[C@@H]3O[C@@]4(C)CC[C@@H]1[C@]32OO4 [artemisinin]	95.6	104	102	91.4	81.6	101	102	99.5	95.4	97.5	97.3	93.1	88.7	86.1	77.1	96.9	99.8	94.6	91.1	78.6	97.5	95.4	98	96.9	100	> 10	> 10	> 10	> 10	> 10	1.3	0	2.5	1.1	0
C=C[C@@H]1C[C@]1(NC(=O)[C@@H]1C[C@@H](Oc2ncc(OC)c3ccc(Cl)cc23)CN1C(=O)[C@@H](NC(=O)OC(C)(C)C)C(C)(C)C)C(=O)NS(=O)(=O)C1CC1 [asunaprevir]	98.7	96.5	90	104	85.8	104	101	104	101	95.9	104	97.8	98.8	89.8	86.1	98.4	101	96.7	96.8	97.8	102	98.4	93.5	101	91	> 10	> 10	> 10	> 10	> 10	0.1	0	0.6	0	0
C=C[C@@](C)(/C=C/c1ccc(O)cc1)CCC=C(C)C [bakuchiol]	105	87.4	109	96.8	97.6	94.8	94.9	95.7	96.1	98.2	107	115	87.9	93	81.5	96.1	101	98	92.8	97.6	103	110	98.7	97.6	98.5	> 10	> 10	> 10	> 10	> 10	0	0	0.9	0	0
O=C(O)COc1nn(Cc2ccccc2)c2ccccc12 [bendazac]	109	96.3	103	97.6	102	86.6	83.3	104	103	104	91.7	104	97.3	94.1	98.7	91.7	95.3	98.9	92.3	96.1	101	101	99	103	98.8	> 10	> 10	> 10	> 10	> 10	0	0	0	0	0
CN(C)CCCOc1nn(Cc2ccccc2)c2ccccc12 [benzydamine]	86.2	94.3	73.1	80.3	87.1	98.8	91.7	95.6	101	90.5	97.7	102	95.1	91.4	89.8	101	96.5	100	95.6	91.2	98.7	105	98.3	96.9	85.5	> 10	> 10	> 10	> 10	> 10	0	0	0	0	0.5

Reference: the supplement of paper PMC13380429
